Tests used:
Assay type in all cases: cell-based, human
T24 cells = test: CCK-8 anti-proliferative assay, T24; conditions: Homo sapiens, T-24; Table 10; co-incubated 48 h; read-out: Anti-proliferative activity (IC50 ± standard deviation) T24
Procedure, shortened: (§1)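 Human tumour cells were seeded at 5,000 per well and grown to 70% confluence. They were then treated in triplicate with compound at 1–30 μM (final) for the designated time. Viability was read by CCK-8 absorbance at 450 nm after 1–4 h, and IC50 was derived from % inhibition versus control.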

SK-OV-3 cells = test: CCK-8 anti-proliferative assay, SK-OV-3; conditions: Homo sapiens, SK-OV-3; Table 12; co-incubated 48 h; read-out: Anti-proliferative activity (IC50 ± standard deviation) SK-OV-3
Procedure, shortened: (§2)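 Cells seeded at 5,000/well and grown at 37° C., 5% CO2 to 70% confluency, then treated with compound at final 1, 2, 4, 6, 8, 12, 16, 24 and 30 μM in triplicate.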

5637 cells = test: CCK-8 anti-proliferative assay, 5637; conditions: Homo sapiens; Table 10; co-incubated 48 h; read-out: Anti-proliferative activity (IC50 ± standard deviation) 5637
Procedure, shortened: as §2

[1] = system: embryonic lung fibroblasts (WI-38); test: CCK-8 anti-proliferative assay, normal cells WI-38; conditions: Homo sapiens, WI-38, Table 13, co-incubated 48 h, read-out: Anti-proliferative activity (IC50 ± standard deviation) WI-38
Procedure, shortened: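 Absorbance at 450 nm after CCK-8 labelling (1–4 h, varying by cell line) gave inhibition relative to untreated control, from which IC50 values were derived. Compounds were applied at final concentrations of 1 to 30 μM in triplicate wells once cultures reached 70% confluency, with co-incubation for designated durations.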

J82 cells = test: CCK-8 anti-proliferative assay, J82; conditions: Homo sapiens, J82; Table 10; co-incubated 48 h; read-out: Anti-proliferative activity (IC50 ± standard deviation) J82
Procedure, shortened: as §2

BxPC-3 cells = test: CCK-8 anti-proliferative assay, BxPC-3; conditions: Homo sapiens, BXPC-3; Table 11; co-incubated 48 h; read-out: Anti-proliferative activity (IC50 ± standard deviation) BxPC-3
Procedure, shortened: as §1

[2] = system: immortalized ureteral epithelial cells (SV-HUC-1); test: CCK-8 anti-proliferative assay, normal cells SV-HUC-1; conditions: Homo sapiens, SV-HUC1; Table 13; normal cells; co-incubated 48 h; read-out: Anti-proliferative activity (IC50 ± standard deviation) SV-HUC-1
Procedure, shortened: as §2

PANC-1 cells = test: CCK-8 anti-proliferative assay, PANC-1; conditions: Homo sapiens, PANC-1; Table 11; co-incubated 48 h; read-out: Anti-proliferative activity (IC50 ± standard deviation) PANC-1
Procedure, shortened: as §1

UM-UC-3 cells = test: CCK-8 anti-proliferative assay, UM-UC-3; conditions: Homo sapiens, UMUC3; Table 10; co-incubated 48 h; read-out: Anti-proliferative activity (IC50 ± standard deviation) UM-UC-3
Procedure, shortened: as §2

MG-63 cells = test: CCK-8 anti-proliferative assay, MG-63; conditions: Homo sapiens, MG-63; Table 11; co-incubated 48 h; read-out: Anti-proliferative activity (IC50 ± standard deviation) MG-63
Procedure, shortened: as §1

Hep G2 cells = test: CCK-8 anti-proliferative assay, Hep G2; conditions: Homo sapiens, HepG2; Table 12; co-incubated 48 h; read-out: Anti-proliferative activity (IC50 ± standard deviation) Hep G2
Procedure, shortened: as §1

MCF-7 cells = test: CCK-8 anti-proliferative assay, MCF-7; conditions: Homo sapiens, MCF7; Table 12; co-incubated 48 h; read-out: Anti-proliferative activity (IC50 ± standard deviation) MCF-7
Procedure, shortened: as §2

HeLa cells = test: CCK-8 anti-proliferative assay, HeLa; conditions: Homo sapiens, HeLa; Table 12; co-incubated 48 h; read-out: Anti-proliferative activity (IC50 ± standard deviation) HeLa
Procedure, shortened: as §2

143B cells = test: CCK-8 anti-proliferative assay, 143B; conditions: Homo sapiens, 143B; Table 11; co-incubated 48 h; read-out: Anti-proliferative activity (IC50 ± standard deviation) 143B
Procedure, shortened: as §1

A549 cells = test: CCK-8 anti-proliferative assay, A549; conditions: Homo sapiens, A549; Table 13; co-incubated 48 h; read-out: Anti-proliferative activity (IC50 ± standard deviation) A549
Procedure, shortened: as §2

| IC50 (T24 cells) | IC50 (SK-OV-3 cells) | IC50 (BxPC-3 cells) | IC50 (PANC-1 cells) | IC50 (MCF-7 cells) | IC50 (HeLa cells) | IC50 (A549 cells) | SMILES | IC50 (5637 cells) | IC50 [1] | IC50 (J82 cells) | IC50 [2] | IC50 (UM-UC-3 cells) | IC50 (MG-63 cells) | IC50 (Hep G2 cells) | IC50 (143B cells) |
| --- | --- | --- | --- | --- | --- | --- | --- | --- | --- | --- | --- | --- | --- | --- | --- |
| 6.02 ± 0.46 µM | 11.7 ± 0.88 µM | 18.9 ± 1.24 µM | > 30 µM | 7.29 ± 0.63 µM | 6.42 ± 0.69 µM | > 30 µM | COc1ccc(NC(=O)Nc2cccc(CNc3ncnc4cc(OC)c(OCCCCCCN5CCC(CN6CCN(c7ccccn7)CC6)CC5)cc34)c2)cc1 [Compound 8-2l, N-(3-(((7-methoxy-6-((6-(4-((4-(pyridin-2-yl)piperazin-1-yl)methyl)piperidin-1-yl)hexyl)oxy)quinazolin-4-yl)amino)methyl)phenyl)-N′-(4-methoxyphenyl)urea] | 9.12 ± 0.59 µM | 13.9 ± 0.71 µM | 7.83 ± 0.69 µM | 10.9 ± 0.69 µM | 12 ± 0.94 µM | 7.69 ± 0.58 µM | 4.74 ± 0.62 µM | 6.75 ± 0.41 µM |
| 5.82 ± 0.36 µM | 5.93 ± 0.61 µM | 14.4 ± 1.55 µM | 18.8 ± 1.43 µM | 12.8 ± 0.85 µM | 12.7 ± 0.92 µM | 15.4 ± 0.83 µM | COc1cc2ncnc(NCc3cccc(NC(=O)Nc4ccc(F)cc4)c3)c2cc1OCCCCCCN1CCC(CN2CCN(c3ccccn3)CC2)CC1 [Compound 8-2n, N-(3-(((7-methoxy-6-((6-(4-((4-(pyridin-2-yl)piperazin-1-yl)methyl)piperidin-1-yl)hexyl)oxy)quinazolin-4-yl)amino)methyl)phenyl)-N′-(4-fluorophenyl)urea] | 8.61 ± 0.73 µM | 9.98 ± 0.53 µM | 15 ± 1.19 µM | 14.4 ± 0.77 µM | 12.8 ± 0.76 µM | 8.39 ± 0.66 µM | 8.51 ± 0.67 µM | 6.71 ± 0.48 µM |
| 7.93 ± 0.22 µM | 11.9 ± 0.94 µM | 22.4 ± 1.27 µM | > 30 µM | 16.2 ± 1.07 µM | 13.7 ± 1.29 µM | 27.2 ± 2.04 µM | COc1cc2ncnc(NCc3cccc(NC(=O)Nc4ccccc4Cl)c3)c2cc1OCCCCCCN1CCC(CN2CCN(c3ccccn3)CC2)CC1 [Compound 8-2o, N-(3-(((7-methoxy-6-((6-(4-((4-(pyridin-2-yl)piperazin-1-yl)methyl)piperidin-1-yl)hexyl)oxy)quinazolin-4-yl)amino)methyl)phenyl)-N′-(2-chlorophenyl)urea] | 12.4 ± 0.89 µM | 12.7 ± 0.89 µM | 16.7 ± 1.52 µM | 16.2 ± 0.84 µM | 15.9 ± 0.95 µM | 9.92 ± 0.82 µM | 16 ± 0.96 µM | 13.8 ± 0.82 µM |
| 6.76 ± 0.38 µM | 5.62 ± 0.47 µM | 13.2 ± 0.78 µM | 15.2 ± 0.67 µM | 6.44 ± 0.71 µM | 7.72 ± 0.34 µM | 13.3 ± 0.86 µM | COc1cc2ncnc(NCc3cccc(NC(=O)Nc4ccc(Cl)cc4)c3)c2cc1OCCCCCCN1CCC(CN2CCN(c3ccccn3)CC2)CC1 [Compound 8-2q, N-(3-(((7-methoxy-6-((6-(4-((4-(pyridin-2-yl)piperazin-1-yl)methyl)piperidin-1-yl)hexyl)oxy)quinazolin-4-yl)amino)methyl)phenyl)-N′-(4-chlorophenyl)urea] | 4.32 ± 0.33 µM | 7.36 ± 0.23 µM | 6.69 ± 0.53 µM | 9.49 ± 0.73 µM | 7.19 ± 0.47 µM | 8.61 ± 0.53 µM | 10.7 ± 0.98 µM | 7.08 ± 0.85 µM |
| 5.12 ± 0.39 µM | 11.3 ± 0.83 µM | 10.3 ± 0.93 µM | 14.6 ± 0.78 µM | 11.4 ± 0.76 µM | 7.37 µM | 12.3 ± 0.92 µM | COc1cc2ncnc(NCc3cccc(NC(=O)Nc4ccc(Cl)cc4Cl)c3)c2cc1OCCCCCCN1CCC(CN2CCN(c3ccccn3)CC2)CC1 [Compound 8-2r, N-(3-(((7-methoxy-6-((6-(4-((4-(pyridin-2-yl)piperazin-1-yl)methyl)piperidin-1-yl)hexyl)oxy)quinazolin-4-yl)amino)methyl)phenyl)-N′-(2,4-dichlorophenyl)urea] | 6.29 ± 0.37 µM | 7.72 ± 0.39 µM | 4.73 ± 0.38 µM | 8.41 ± 0.43 µM | 11.7 ± 0.96 µM | 7.02 ± 0.58 µM | 7.02 ± 0.49 µM | 8.91 ± 0.77 µM |
| 7.73 ± 0.47 µM | 6.02 ± 0.39 µM | 9.72 ± 0.95 µM | 10.4 ± 0.62 µM | 5.88 ± 0.57 µM | 7.99 ± 0.68 µM | 7.32 ± 0.85 µM | COc1cc2ncnc(NCc3cccc(NC(=O)Nc4c(Cl)cc(Cl)cc4Cl)c3)c2cc1OCCCCCCN1CCC(CN2CCN(c3ccccn3)CC2)CC1 [Compound 8-2s, N-(3-(((7-methoxy-6-((6-(4-((4-(pyridin-2-yl)piperazin-1-yl)methyl)piperidin-1-yl)hexyl)oxy)quinazolin-4-yl)amino)methyl)phenyl)-N′-(2,4,6-trichlorophenyl)urea] | 4.87 ± 0.29 µM | 11.5 ± 0.62 µM | 4.62 ± 0.33 µM | 8.36 ± 1.62 µM | 10 ± 0.73 µM | 11 ± 0.97 µM | 4.91 ± 0.55 µM | 5.94 ± 0.43 µM |
| 6.47 ± 0.25 µM | 13.3 ± 0.84 µM | 11.3 ± 0.73 µM | 15.6 ± 0.93 µM | 5.94 ± 0.36 µM | 7.29 ± 0.24 µM | 11.8 ± 0.88 µM | COc1cc2ncnc(NCc3cccc(NC(=O)Nc4ccc(C(F)(F)F)cc4)c3)c2cc1OCCCCCCN1CCC(CN2CCN(c3ccccn3)CC2)CC1 [Compound 8-2t, N-(3-(((7-methoxy-6-((6-(4-((4-(pyridin-2-yl)piperazin-1-yl)methyl)piperidin-1-yl)hexyl)oxy)quinazolin-4-yl)amino)methyl)phenyl)-N′-(4-(trifluoromethyl)phenyl)urea] | 7.32 ± 0.57 µM | 10.6 ± 0.64 µM | 5.46 ± 0.41 µM | 8.92 ± 0.49 µM | 6.79 ± 0.41 µM | 11.7 ± 0.92 µM | 4.76 ± 0.45 µM | 9.42 ± 0.56 µM |
| 14.1 ± 0.77 µM | 15.6 ± 0.92 µM | 25.4 ± 1.57 µM | > 30 µM | 9.92 ± 0.86 µM | > 30 µM | 12.4 ± 1.43 µM | COc1cc2ncnc(NCc3cccc(NC(=O)Nc4ccc(F)c(C(F)(F)F)c4)c3)c2cc1OCCCCCCN1CCC(CN2CCN(c3ccccn3)CC2)CC1 [Compound 8-2u] | 13.2 ± 0.78 µM | 15.9 ± 0.85 µM | 12.9 ± 0.66 µM | 23.1 ± 0.97 µM | 11.9 ± 0.66 µM | 16 ± 1.07 µM | 14.3 ± 1.33 µM | 13.6 ± 0.92 µM |
| 4.73 ± 0.42 µM | 5.49 ± 0.63 µM | 14.9 ± 1.28 µM | 14.9 ± 0.79 µM | 4.41 ± 0.27 µM | 6.98 ± 0.83 µM | 7.98 ± 0.92 µM | COc1cc2ncnc(NCc3cccc(NC(=O)Nc4ccc(Cl)c(C(F)(F)F)c4)c3)c2cc1OCCCCCCN1CCC(CN2CCN(c3ccccn3)CC2)CC1 [Compound 8-2v] | 11.8 ± 0.95 µM | 8.71 ± 0.52 µM | 11.1 ± 0.69 µM | 7.33 ± 0.46 µM | 6.77 ± 0.69 µM | 8.02 ± 0.79 µM | 4.97 ± 0.35 µM | 6.84 ± 0.59 µM |
| 5.92 ± 0.54 µM | 5.16 ± 0.27 µM | 15.5 ± 0.92 µM | 15.1 ± 0.66 µM | 5.59 ± 0.46 µM | 6.42 ± 0.56 µM | 9.69 ± 0.72 µM | COc1cc2ncnc(NCc3cccc(NC(=O)Nc4cc(C(F)(F)F)cc(C(F)(F)F)c4)c3)c2cc1OCCCCCCN1CCC(CN2CCN(c3ccccn3)CC2)CC1 [Compound 8-2w, N-(3-(((7-methoxy-6-((6-(4-((4-(pyridin-2-yl)piperazin-1-yl)methyl)piperidin-1-yl)hexyl)oxy)quinazolin-4-yl)amino)methyl)phenyl)-N′-(3,5-bis(trifluoromethyl)phenyl)urea] | 13.1 ± 0.67 µM | 9.49 ± 0.42 µM | 7.84 ± 0.52 µM | 7.19 ± 0.68 µM | 6.42 ± 0.16 µM | 8.33 ± 0.81 µM | 5.87 ± 0.49 µM | 8.04 ± 0.45 µM |

— patent publication US20260285816A1, “Piperazinyl-Modified Quinazolinyl-Aryl Urea Derivative, And Preparation Method And Use Thereof” (Guangxi Normal University, priority 2025, published 2026)
